Entries after “also recorded” stand apart in the source; their conditions may differ. Where a name gives a salt, the structure may show the parent alone.
Key:
Format in all cases: in vivo, human
[1] = Safety: adverse events graded by CTCAE v3.0 in native Chinese cancer patients
Method: Eligibility assessments, which consisted of a complete medical history, physical examination, ECOG performance status, vital sign measurements, concomitant drugs, ECG, laboratory tests, one or more relevant radiologic test(s) for tumor measurement (computed tomography scan, magnetic resonance imaging, X-ray, or bone scan) and tumor measurement of palpable or visible lesions, were conducted within 28 days before the lead-in day. Lead-in day (within 7 days before treatment initiation) assessments included physical examination, ECOG performance status, vital sign measurements, concomitant drugs, ECG (at 0 and 4 h) and laboratory tests.
ECGs were performed 4 h after treatment on days 1 and 2. Patients received the same assessments on day 14 as on the lead-in day, except that ECGs were performed predose (0 h) and 4 h postdose. Blood samples for PK were collected from days 14 to 18. After retreatment for 2 to 4 weeks from day 18, patients were re-evaluated to determine whether they should continue in the safety extension phase or washout prior to withdrawal from the study.
(§1) All patients who entered the safety extension phase were evaluated with a physical examination, vital signs, laboratory tests, concomitant drugs, ECG at a 4-week follow-up visit, tumor measurements and imaging studies at 4- to 8-week intervals.
(§2) All observed AEs were graded using the CTCAE, version 3.0 (NCI 2003). Imaging studies of involved disease sites were repeated every 4 to 8 weeks in patients who entered the safety extension phase. All lesion assessments, whether by physical examination or radiologic methods, were repeated by the same methods at least 4 weeks following the initial observation of an objective response for response confirmation. Responses were recorded based on Response Evaluation Criteria in Solid Tumors, version 1.0 (RECIST 1.0), and Revised Response Criteria for Malignant Lymphoma.

[2] = test system: refractory solid tumors and lymphoma; assay: Anti-tumor response (RECIST 1.0 / Revised Response Criteria for Malignant Lymphoma), safety extension phase
Method: as §1, §2

[3] = Steady-state plasma pharmacokinetics of enzastaurin and metabolites in native Chinese cancer patients (LC-MS/MS, noncompartmental)
Method: Then, the study drug ceased for three days (days 15 to 17) and resumed on day 18, after the last PK sample was obtained. During the study, dosing occurred at approximately the same time of day for each individual patient.
Nominal collection times were day 14 predose and 1, 2, 4, 6, 8, 10, 24, 48, 72, and 96 h postdose. […] The actual sampling time was accurately recorded for analysis.
Pharmacokinetic parameters were calculated using noncompartmental methods of analysis using WinNonlin (Pharsight Corp., Cary, NC, USA). […] Total plasma analyte AUCτ, ss and Cav ss were calculated by summing the respective AUCτ, ss or Cav, ss estimates for each of the 4 individual analytes. Total plasma analyte Cmax was reported as the highest sum of individual analyte concentrations at any given sampling time during a concentration-time profile, not the sum of the Cmax of each analyte. […] The AUC was calculated by a combination of linear and logarithmic trapezoidal methods. The linear trapezoidal method was employed up to tmax, and the log trapezoidal method was then used for data after tmax. PK measurements were calculated based on the actual collection times. Patients with insufficient data were excluded from the analysis.

[4] = of 9 non-Hodgkin lymphoma patients
[5] = of 10 evaluated lymphoma patients

Structure (SMILES): Cn1cc(C2=C(c3cn(C4CCN(Cc5ccccn5)CC4)c4ccccc34)C(=O)NC2=O)c2ccccc21 [enzastaurin, Enzastaurin monohydrochloride]
- Tolerability ([1]; 500 mg daily, Chinese patients): well tolerated with minimal toxicity
- Deaths or serious adverse events during the study ([1]; 500 mg once daily): No deaths or other serious adverse events; also recorded: Neither drug-related deaths nor serious AEs were reported
- Discontinuation because of an AE ([1]; 500 mg once daily): No patients discontinued because of an AE; also recorded: No patient withdrew from the study because of toxicity
- Patients reporting at least 1 AE (percent) ([1]; PK phase): 80%
- Patients reporting at least 1 AE, drug related ([1]; PK phase): 14
- Patients reporting at least 1 AE ([1]; PK phase, 25 patients treated): 20 patients
- Number of patients with drug-related abdominal pain, grade 0 ([1]; maximum grade 0, n = 25): 22
- Number of patients with drug-related anemia, grade 0 ([1]; maximum grade 0, n = 25): 24
- Number of patients with drug-related chromaturia, grade 0 ([1]; maximum grade 0, n = 25): 22
- Number of patients with drug-related diarrhea, grade 0 ([1]; maximum grade 0, n = 25): 24
- Number of patients with drug-related fatigue, grade 0 ([1]; maximum grade 0, n = 25): 24
- Number of patients with drug-related increased ALT, grade 0 ([1]; maximum grade 0, n = 25): 22
- Number of patients with drug-related increased AST, grade 0 ([1]; maximum grade 0, n = 25): 23
- Number of patients with drug-related insomnia, grade 0 ([1]; maximum grade 0, n = 25): 24
- Number of patients with drug-related leukopenia, grade 0 ([1]; maximum grade 0, n = 25): 23
- Number of patients with drug-related lymphocytopenia, grade 0 ([1]; maximum grade 0, n = 25): 23
- Number of patients with drug-related nausea, grade 0 ([1]; maximum grade 0, n = 25): 24
- Number of patients with drug-related neutropenia, grade 0 ([1]; maximum grade 0, n = 25): 24
- Number of patients with drug-related thrombocytopenia, grade 0 ([1]; maximum grade 0, n = 25): 24
- Number of patients with drug-related QT prolongation, grade 0 ([1]; maximum grade 0, n = 25, 500 mg daily): 21
- Number of patients with drug-related abdominal pain, grade 1 ([1]; maximum grade 1, n = 25): 3
- Number of patients with drug-related anemia, grade 1 ([1]; maximum grade 1, n = 25): 1
- Number of patients with drug-related chromaturia, grade 1 ([1]; maximum grade 1, n = 25): 3
- Number of patients with drug-related fatigue, grade 1 ([1]; maximum grade 1, n = 25): 1
- Number of patients with drug-related increased ALT, grade 1 ([1]; maximum grade 1, n = 25): 3
- Number of patients with drug-related increased AST, grade 1 ([1]; maximum grade 1, n = 25): 2
- Number of patients with drug-related leukopenia, grade 1 ([1]; maximum grade 1, n = 25): 1
- Number of patients with drug-related lymphocytopenia, grade 1 ([1]; maximum grade 1, n = 25): 1
- Number of patients with drug-related nausea, grade 1 ([1]; maximum grade 1, n = 25): 1
- Number of patients with drug-related neutropenia, grade 1 ([1]; maximum grade 1, n = 25): 1
- Number of patients with drug-related thrombocytopenia, grade 1 ([1]; maximum grade 1, n = 25): 1
- Number of patients with drug-related QT prolongation, grade 1 ([1]; maximum grade 1, n = 25, 500 mg daily): 1
- Number of patients with drug-related diarrhea, grade 2 ([1]; maximum grade 2, n = 25): 1
- Number of patients with drug-related insomnia, grade 2 ([1]; maximum grade 2, n = 25): 1
- Number of patients with drug-related leukopenia, grade 2 ([1]; maximum grade 2, n = 25): 1
- Number of patients with drug-related lymphocytopenia, grade 2 ([1]; maximum grade 2, n = 25): 1
- Number of patients with drug-related QT prolongation, grade 2 ([1]; maximum grade 2, n = 25, 500 mg daily): 2
- Number of patients with drug-related QT prolongation, grade 3 ([1]; maximum grade 3, n = 25, 500 mg daily): 1
- Patients who experienced grade 3 AEs ([1]; regardless of causality, CTCAE): 7 patients
- Patients who experienced a grade 4 AE ([1]; regardless of causality, neutropenia considered caused by leukemia): 1
- Patients reporting at least 1 AE (percent) ([1]; safety extension phase): 53.3%
- Patients reporting at least 1 AE, drug related ([1]; safety extension phase): 5
- Patients reporting at least 1 AE ([1]; safety extension phase, 15 patients): 8 patients
- NHL patients who achieved a partial response [2, 4]: 1
- NHL patients who achieved stable disease [2, 4]: 4
- NHL patients with complete response on enzastaurin maintenance therapy after salvage chemotherapy [2, 4]: 1
- Lymphoma patients with progressive disease [2, 5]: three
- Lymphoma patients with stable disease [2, 5]: five
- Duration of stable disease ([2]; one Hodgkin lymphoma patient): 22.1 months
- Duration of stable disease ([2]; one follicular lymphoma patient): 25.2 months
- Duration of partial response ([2]; one patient with relapsed DLBCL): 8.1 months
- Disease-free time on enzastaurin after complete response following salvage chemotherapy ([2]; one patient with relapsed DLBCL, still on drug at last follow-up): 30 months
- Activity in advanced/metastatic solid tumors ([2]; overall judgement): poor activity
- Efficacy against lymphoma ([2]; overall judgement): limited efficacy
- Time of treatment at which partial response was observed ([2]; relapsed DLBCL patient, PET-CT): 1.8 months
- Cav, ss ([3]; 500 mg orally once daily, steady state, geometric mean (% CV), N = 23): 1,210 nmol/L
- Cav, ss ([3]; 500 mg orally once daily, steady state, geometric mean (% CV), N = 23, listed as Enzastaurin): 1210 (128) nmol/L
- Cmax ([3]; human, plasma, po, 500 mg): 2370 nM
- Tmax ([3]; human, plasma, po, 500 mg, 500 mg orally once daily, steady state, median and range, N = 23): ≤ 4 h
- AUC ([3]; human, plasma, po, 500 mg orally once daily, steady state, one dosing interval, geometric mean (% CV), N = 23): 29.1 µM·h
- half-life ([3]; human, plasma, po, 500 mg orally once daily, washout days 15-17, geometric mean and range, N = 21): 14 h

Reference: paper PMC4951311 (Oncotarget, 2016)
